# In ChEMBL document CHEMBL3046472, “QSAR modeling of photosynthesis-inhibiting nostoclide derivatives” (Pest Manag Sci, 2010):
# Activity calls are given as the source filed them. No cut-off for these calls is given here.
# Target: Cytochrome b6-f complex subunit 4 (Spinacia oleracea) (UniProt P00166)
# Assay: Inhibition of photosynthetic electron transport protein complex in Spinacia oleracea (spinach) leaf thylakoid membranes up to 100 uM measured at 30 seconds intervals for 10 min
# Chain of Cytochrome b6-f complex subunit 4 (Spinacia oleracea) (P00166 whole entry, looked up, one chain of several): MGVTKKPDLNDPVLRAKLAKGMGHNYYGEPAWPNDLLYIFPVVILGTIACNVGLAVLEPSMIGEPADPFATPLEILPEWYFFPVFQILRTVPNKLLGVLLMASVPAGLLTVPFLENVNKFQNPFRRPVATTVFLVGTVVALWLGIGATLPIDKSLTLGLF
row,SMILES,inhibition
1,CN(C)c1ccc(/C=C2/C=C(Cc3ccccc3)C(=O)O2)c(Cl)c1,inactive
2,O=C1O/C(=C\c2ccc3c(c2)OCO3)C=C1Cc1ccccc1,inactive
3,N#Cc1cccc(/C=C2/C=C(Cc3ccccc3)C(=O)O2)c1,inactive
4,O=C1O/C(=C\c2ccc(-c3ccccc3)cc2)C=C1Cc1ccccc1,inactive
5,O=C1O/C(=C\c2ccccc2O)C=C1Cc1ccccc1,inactive
6,O=C1O/C(=C\c2cccc(O)c2)C=C1Cc1ccccc1,inactive
7,COc1ccc(/C=C2/C=C(Cc3ccccc3)C(=O)O2)cc1O,inactive
8,CN(C)c1ccc(/C=C2/C=C(Cc3ccccc3)C(=O)O2)cc1,inactive

# Continued, values first:
row,inhibition,SMILES
1,inactive,N#Cc1ccc(/C=C2/C=C(Cc3ccccc3)C(=O)O2)cc1
2,inactive,O=C1O/C(=C\c2ccc(O)cc2)C=C1Cc1ccccc1
3,inactive,O=C1O/C(=C\c2ccc(Br)cc2)C=C1Cc1ccccc1
4,inactive,O=C1O/C(=C\c2ccc(Cl)cc2)C=C1Cc1ccccc1
5,inactive,Cc1ccc(/C=C2/C=C(Cc3ccccc3)C(=O)O2)cc1
